# In US12653808B2, “Compounds for treating multiple myeloma” (Purdue Pharma L.P., priority 2018, dated 2026):
# “And” between values parts separate entries of the source, which are not always exact repeats. Identical values can stand only once.
# Experiments:
# [1] = tested on: patients with relapsed/refractory hematologic malignancies; test: Biochemistry: clinical chemistry abnormalities and TEAEs; type: in vivo, human
# Source text: (§1) Other safety assessments included physical examinations, Eastern Cooperative Oncology Group (ECOG) performance status determinations, electrocardiograms (ECGs), pregnancy testing for women of childbearing potential, documentation of treatment-emergent adverse events (TEAEs), clinical laboratory evaluations including haematology, blood chemistry and urinalysis, vital signs, and documentation of concomitant medication usage.
# [2] = tested on: patients with relapsed/refractory hematologic malignancies; test: Cardiac safety: electrocardiograms and cardiac disorders; type: in vivo, human
# Source text: as §1
# [3] = tested on: patients with relapsed/refractory hematologic malignancies; test: Phase 1 dose escalation trial: safety, treatment-emergent adverse events, DLT/MTD (NCI CTCAE v4.03); type: in vivo, human; settings: for recommended starting dose, relapse refractory multiple myeloma: 60 minutes infusion, day 1 and day 15 of 28-day cycle
# Description: A phase 1 trial was carried out including a dose escalation study to investigate the safety, pharmacokinetic (PK) profiles and efficacy of tinostamustine (EDO-S101) in relapsed/refractory hematologic malignancies.
# The patient had relapsed/refractory hematologic malignancies for which there are no available therapies.
# The assessment of dose-limiting toxicities (DLTs) was based on cycle 1 events alone. Toxicities were assessed regarding type and severity using the National Cancer Institute (NCI) Common Terminology Criteria for Adverse Events (CTCAE) version 4.03, June 2010. Toxicity data were collected for all patients throughout their time on study. Infusion site reactions were assessed using the Phlebitis Scale developed by the Infusion Nurses Society (2011).
# DLTs, which were at least possibly related to study drug, were defined as: • Any Grade 3 or 4 non-hematologic toxicity (excluding alopecia and easily correctable electrolyte abnormalities); • Nausea, vomiting or diarrhoea that persists beyond 10 days despite aggressive symptomatic treatment; • Grade 4 neutropenia or thrombocytopenia lasting for 7 days or more; • Any grade 2 or more toxicity, but persist for over 3 weeks; and • Any toxicity resulting in a delay of the next dose administration (cycle 2 day 1≥14).
# To ensure patients' safety, the stopping rules were implemented to the dose escalation stage of the study.
# as §1
# If there is no DLT observed in any of these subjects, the trial proceeds to enroll additional subjects into the next higher dose cohort. If one subject develops a DLT at a specific dose, an additional three subjects are enrolled into that same dose cohort.
# [4] = tested on: lymphoma (Hodgkin and non-Hodgkin); test: Tumour assessment: response to treatment, patients with lymphoma; type: in vivo, human; settings: 27 patients with lymphoma
# Source text: (§2) Response to treatment included evaluation of overall response rate (patients with a CR plus patients with a PR), clinical benefit (CB) rate (patients with CR plus patients with PR plus patients with stable disease (SD)), progression free survival, and overall survival according to the relevant response criteria.
# [5] = Compartmental population PK analysis of tinostamustine; type: in vivo, human; settings: dose range 20 to 120 mg/m^2, infusion times 30 to 60 minutes
# Description: A compartmental population PK analysis of tinostamustine was conducted to characterize its concentration-time profiles and its dependency on patient factors. For the analysis, the 24 hours plasma concentrations of tinostamustine at day one from 36 patients was used from whom the data was available. The concentration-time profiles were best described with a two-compartmental model with first order clearance from the central compartment.
# multiple myeloma [6] = settings: López-Iglesias et al, J Hematol Oncol 2017, 10, 127; cited from earlier work
# [7] = PK assessment: plasma concentrations of tinostamustine and metabolites M2 and M8, cycle 1 day one; type: in vivo, human
# Description: Plasma samples were collected to determine the concentrations of tinostamustine and its metabolites (labelled M2 and M8) by a method fully validated according to the relevant guidelines. The PK profiles of tinostamustine in plasma were assessed in each patient in the escalation stage of the study, in cycle 1 only.
# Patients of all cohorts and over all dose levels were sampled according to the following schedule: 0.5 hours prior to dose administration, and at 15, 30 and 45 minutes and 1, 1.25, 1.50, 2, 3, 8, 24, 48 and 72 hours from the start of tinostamustine infusion. Plasma samples were collected according to the Laboratory Manual for the determination of tinostamustine and metabolites M2 and M8 concentrations using a method fully validated according to the relevant guidelines.
# multiple myeloma [8] = test: Tumour assessment: response to treatment, patients with multiple myeloma; type: in vivo, human; settings: 19 patients with MM
# Source text: as §2
# [9] = tested on: relapsed/refractory hematologic malignancies; test: Tumour assessment: response to treatment, all HM; type: in vivo, human; settings: all 46 patients
# Source text: as §2
# [10] = all cohorts administered over 30 or 45 minutes
# [11] = doses of 20 to 80 mg/m^2, 60 min cohorts
# [12] = doses of 100 or 120 mg/m^2, 60 min cohorts
smiles,measurement,setting,value
Cn1c(CCCCCCC(=O)NO)nc2cc(N(CCCl)CCCl)ccc21 [tinostamustine],C-reactive protein increased TEAE,[1]; all patients,4%
same,blood creatinine increased TEAE,[1]; all patients,9%
same,blood potassium decreased/hypokalemia TEAE,[1]; all patients,11%
same,grade 3 hyperuricemia TEAE,[1]; considered unrelated to study drug,2%
same,treatment-emergent shift to grade 3 aspartate aminotransferase increased and grade 3 hypoalbuminemia (each),[1]; patients with normal or grade 1 or 2 values at baseline,2%
same,treatment-emergent ECG abnormality indicated to be clinically significant,[2]; all patients,No patient
same,treatment-emergent QTcF interval >500 msec,[2]; all patients,One patient
same,prolonged QTcF interval,"[2]; one subject, MM 80/45 cohort, discontinuation visit three weeks after only dose, screening QTcF 423 msec",677 ms
same,cardiac disorder considered study drug-related (grade 1 palpitations),[2]; overall,2%
same,patients with Grade 3 and 4 thrombocytopenia in C2 and C3 leading to withdrawal,[3]; 100 mg/m^2 over 60 minutes,three patients
same,DLT,"[3]; 120 mg/m^2, lymphoma cohort",Thrombocytopenia
same,"serious thrombocytopenia (grade 3), also led to study discontinuation","[3]; HM120/60 cohort patient, of all patients",2%
same,TEAE with outcome of death,"[3]; Patients (N = 46), number (percent)",0 (0)
same,"leukopenia, incidence",[3]; administered over 30 or 45 minutes,16%
same,"leukopenia, incidence",[3]; administered over 60 minutes,27%
same,"thrombocytopenia, incidence",[3]; administered over 60 minutes,58%
same,"SAE dyspnea, hypersensitivity, osteomyelitis, pleural effusion, pneumonia, and thrombocytopenia (each)",[3]; all 46 patients,2%
same,SAE febrile neutropenia and sepsis (each),[3]; all 46 patients,2%
same,"all other TEAEs, incidence",[3]; all 46 patients,< 20%
same,discontinuation because of adverse events (AE),[3]; all 46 patients,29%
same,"grade 3/4 anemia, incidence",[3]; all 46 patients,22%
same,"grade 3/4 leukopenia/WBC decreased, incidence",[3]; all 46 patients,15% and 16%
same,"grade 3/4 lymphopenia, incidence",[3]; all 46 patients,8.6%
same,"grade 3/4 neutropenia/neutrophil count decreased, incidence",[3]; all 46 patients,29%
same,"grade 3/4 thrombocytopenia, incidence",[3]; all 46 patients,39% and 40%
same,"nausea, incidence",[3]; all 46 patients,29%
same,"other TEAEs leading to study drug discontinuation (anaphylactic reaction, febrile neutropenia, hypersensitivity, pleural effusion, pruritus; each)",[3]; all 46 patients,2%
same,patients with at least one TEAE considered study drug-related,[3]; all 46 patients,38 patients
same,"anaemia, incidence","[3]; all 46 patients, any grade",39%
same,"leukopenia/WBC decreased, incidence","[3]; all 46 patients, any grade",21% and 22%
same,"neutropenia/neutrophil count decreased, incidence","[3]; all 46 patients, any grade",29% and 28%
same,"thrombocytopenia/platelet count decreased, incidence","[3]; all 46 patients, any grade",52%
same,"anaemia, incidence",[3]; [10],37%
same,"thrombocytopenia, incidence",[3]; [10],47%
same,"recommended starting dose, relapse refractory multiple myeloma",[3]; baseline platelet count 100×10^9/L,50 mg/m^2
same,"recommended starting dose, relapse refractory multiple myeloma",[3]; baseline platelet count >100×10^9/L,60 mg/m^2
same,"grade 3 or 4 anaemia, incidence",[3]; doses of 20 to 80 mg/m^2,8%
same,"anaemia, incidence",[3]; [11],25%
same,"grade 3/4 thrombocytopenia, incidence",[3]; [11],8%
same,"leukopenia, incidence",[3]; [11],17%
same,"neutropenia, incidence",[3]; [11],25%
same,"grade 3 or 4 anaemia, incidence",[3]; doses of 100 or 120 mg/m^2,36%
same,"anaemia, incidence",[3]; [12],64%
same,"grade 3/4 thrombocytopenia, incidence",[3]; [12],71%
same,"leukopenia, incidence",[3]; [12],36%
same,"neutropenia, incidence",[3]; [12],50%
same,patients who experienced DLTs,"[3]; lymphoma cohort, 120 mg/m^2 over 1 hour",Two out of six
same,"neutropenia, incidence",[3]; shorter infusion times,16%
same,best response PD,[4],37%
same,dose linearity of PK,[5],dose-linear
same,activity in in vitro and in vivo models against multiple myeloma,multiple myeloma [6],potent activity
same,Cmax Mean (SD),"[7]; dose 60 mg/m^2, infusion time 30 minutes",1724 (1416) ng/mL
same,AUC Mean (SD),"[7]; dose 80 mg/m^2, infusion time 60 minutes",902 (653) h · ng/mL
same,AUC Mean (SD),"[7]; dose 120 mg/m^2, infusion time 60 minutes",1638 (578) h · ng/mL
same,best response PD,multiple myeloma [8],47%
same,best response PD,[9],41%
